Reference: patent publication US10167262B2, “Herbicidal substituted 3-arylpyrazoles” (FMC CORPORATION, priority 2014, dated 2019)
Read-outs that look alike come from different tables or passages of the source.

Columns and labels:
Format in all cases: in vivo
[1] = tested on: blackgrass (Alopecurus myosuroides); assay: Test C pre-/postemergence greenhouse test, plant response rating 0-100; details: Alopecurus myosuroides, post-emergence, Postemergence
Summary of the method: (§1)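 Two application timings: preemergence onto seeded loam/sand soil and postemergence onto plants at the 1–4 leaf stage (2–18 cm) in peat/vermiculite medium. Formulation: non-phytotoxic solvent with surfactant. Read-out: visual control rating, 0–100, at 13–15 days after treatment.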

[2] = tested on: ragweed (common ragweed, Ambrosia elatior); assay: as above; details: Ambrosia artemisiifolia, post-emergence, Postemergence
Summary of the method: as §1

[3] = tested on: morningglory (Ipomoea coccinea); assay: as above; details: Ipomoea, post-emergence, Postemergence
Summary of the method: as §1

[4] = tested on: large (Lg) crabgrass (Digitaria sanguinalis); assay: as above; details: Digitaria sanguinalis, post-emergence, Postemergence
Summary of the method: as §1

[5] = tested on: velvetleaf (Abutilon theophrasti); assay: as above; details: Abutilon theophrasti, post-emergence, Postemergence
Summary of the method: as §1

[6] = tested on: wheat (Triticum aestivum); assay: Test A pre-/postemergence greenhouse herbicide test, visual injury rating 0-100
Summary of the method: (§2)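 Directed soil spray (pre) and foliar spray (post, 1–2 leaf) of solvent/surfactant-formulated compound; greenhouse ~10 d; visual injury 0–100 vs untreated controls.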

[7] = tested on: morningglory (Ipomoea spp.); assay: as above; details: for pest or weed control at 500 g/ha: 500 g ai/ha
Summary of the method: as §2

[8] = tested on: barnyardgrass (Echinochloa crus-galli); assay: as above; details: for pest or weed control at 500 g/ha: 500 g ai/ha
Summary of the method: as §2

[9] = tested on: large (Lg) crabgrass (Digitaria sanguinalis); assay: as above; details: for pest or weed control at 500 g/ha: 500 g ai/ha
Summary of the method: as §2

corn (Zea mays) = assay: as above; details: for plant injury at 500 g/ha: 500 g ai/ha
Summary of the method: as §2

[10] = tested on: giant foxtail (Setaria faberii); assay: as above; details: for pest or weed control at 500 g/ha: 500 g ai/ha
Summary of the method: as §2

[11] = tested on: pigweed (Amaranthus retroflexus); assay: as above; details: for pest or weed control at 500 g/ha: 500 g ai/ha
Summary of the method: as §2

[12] = tested on: velvetleaf (Abutilon theophrasti); assay: as above; details: for pest or weed control at 500 g/ha: 500 g ai/ha
Summary of the method: as §2

## CCCn1cc(C(=O)c2ccccc2)c(-c2cc(Cl)cc(Cl)c2)n1 [Compound 61, [3-(3,5-dichlorophenyl)-1-propyl-1H-pyrazol-4-yl]phenylmethanone]
[1]; 31 g ai/ha, read-out: Plant response rating (0 to 100), Blackgrass
  pest or weed control at 31 g/ha: 0%
[1]; 62 g ai/ha, read-out: Plant response rating (0 to 100), Blackgrass
  pest or weed control at 62 g/ha: 0%
[1]; 125 g ai/ha, read-out: Plant response rating (0 to 100), Blackgrass
  pest or weed control at 125 g/ha: 0%
[1]; 250 g ai/ha, scale 0 to 100
  pest or weed control at 250 g/ha: 0%
[2]; 62 g ai/ha, read-out: Plant response rating (0 to 100), Ragweed
  pest or weed control at 62 g/ha: 10%
[2]; 125 g ai/ha, read-out: Plant response rating (0 to 100), Ragweed
  pest or weed control at 125 g/ha: 40%
[2]; 250 g ai/ha, scale 0 to 100
  pest or weed control at 250 g/ha: 40%
[3]; 62 g ai/ha, read-out: Plant response rating (0 to 100), Morningglory
  pest or weed control at 62 g/ha: 0%
[3]; 125 g ai/ha, read-out: Plant response rating (0 to 100), Morningglory
  pest or weed control at 125 g/ha: 0%
[3]; 250 g ai/ha, scale 0 to 100
  pest or weed control at 250 g/ha: 0%
[4]; 31 g ai/ha, read-out: Plant response rating (0 to 100), Crabgrass, Large
  pest or weed control at 31 g/ha: 5%
[4]; 62 g ai/ha, read-out: Plant response rating (0 to 100), Crabgrass, Large
  pest or weed control at 62 g/ha: 5%
[4]; 125 g ai/ha, read-out: Plant response rating (0 to 100), Crabgrass, Large
  pest or weed control at 125 g/ha: 5%
[4]; 250 g ai/ha, scale 0 to 100
  pest or weed control at 250 g/ha: 5%
[5]; 62 g ai/ha, read-out: Plant response rating (0 to 100), Velvetleaf
  pest or weed control at 62 g/ha: 40%
[5]; 125 g ai/ha, read-out: Plant response rating (0 to 100), Velvetleaf
  pest or weed control at 125 g/ha: 75%
[5]; 250 g ai/ha, scale 0 to 100
  pest or weed control at 250 g/ha: 75%
[6]; Preemergence, 125 g ai/ha
  Wheat plant response rating (0 = no effect, 100 = complete control): 0
[6]; Triticum aestivum, post-emergence, 240 h, Postemergence, 125 g ai/ha, read-out: Plant response rating (0 to 100 scale), Wheat
  plant injury at 125 g/ha: 0%
[6]; Triticum aestivum, post-emergence, 240 h, Postemergence, 500 g ai/ha, read-out: Plant response rating (0 to 100 scale), Wheat
  plant injury at 500 g/ha: 0%
[7]; Ipomoea, post-emergence, 240 h, Postemergence, 125 g ai/ha, read-out: Plant response rating (0 to 100 scale), Morningglory
  pest or weed control at 125 g/ha: 0%
[7]; Ipomoea, post-emergence, 240 h, Postemergence, read-out: Plant response rating (0 to 100 scale), Morningglory
  pest or weed control at 500 g/ha: 0%
[7]; Ipomoea, pre-emergence, 240 h, Preemergence, read-out: Plant response rating (0 to 100 scale), Morningglory
  pest or weed control at 500 g/ha: 0%
[7]; Preemergence, 125 g ai/ha
  Morningglory plant response rating (0 = no effect, 100 = complete control): 0
[8]; Echinochloa crus-galli, post-emergence, 240 h, Postemergence, 125 g ai/ha, read-out: Plant response rating (0 to 100 scale), Barnyardgrass
  pest or weed control at 125 g/ha: 0%
[8]; Echinochloa crus-galli, post-emergence, 240 h, Postemergence, read-out: Plant response rating (0 to 100 scale), Barnyardgrass
  pest or weed control at 500 g/ha: 0%
[8]; Echinochloa crus-galli, pre-emergence, 240 h, Preemergence, read-out: Plant response rating (0 to 100 scale), Barnyardgrass
  pest or weed control at 500 g/ha: 0%
[8]; Preemergence, 125 g ai/ha
  Barnyardgrass plant response rating (0 = no effect, 100 = complete control): 0
[9]; Digitaria sanguinalis, post-emergence, 240 h, Postemergence, 125 g ai/ha, read-out: Plant response rating (0 to 100 scale), Crabgrass, Large
  pest or weed control at 125 g/ha: 0%
[9]; Digitaria sanguinalis, post-emergence, 240 h, Postemergence, read-out: Plant response rating (0 to 100 scale), Crabgrass, Large
  pest or weed control at 500 g/ha: 0%
[9]; Digitaria sanguinalis, pre-emergence, 240 h, Preemergence, read-out: Plant response rating (0 to 100 scale), Crabgrass, Large
  pest or weed control at 500 g/ha: 0%
[9]; Preemergence, 125 g ai/ha
  Crabgrass, Large plant response rating (0 = no effect, 100 = complete control): 0
Corn (Zea mays); Preemergence, 125 g ai/ha
  Corn plant response rating (0 = no effect, 100 = complete control): 0
Corn (Zea mays); Zea mays, post-emergence, 240 h, Postemergence, 125 g ai/ha, read-out: Plant response rating (0 to 100 scale), Corn
  plant injury at 125 g/ha: 0%
Corn (Zea mays); Zea mays, post-emergence, 240 h, Postemergence, read-out: Plant response rating (0 to 100 scale), Corn
  plant injury at 500 g/ha: 0%
Corn (Zea mays); Zea mays, pre-emergence, 240 h, Preemergence, read-out: Plant response rating (0 to 100 scale), Corn
  plant injury at 500 g/ha: 0%
[10]; Preemergence, 125 g ai/ha
  Foxtail, Giant plant response rating (0 = no effect, 100 = complete control): 0
[10]; Setaria faberi, post-emergence, 240 h, Postemergence, 125 g ai/ha, read-out: Plant response rating (0 to 100 scale), Foxtail, Giant
  pest or weed control at 125 g/ha: 0%
[10]; Setaria faberi, post-emergence, 240 h, Postemergence, read-out: Plant response rating (0 to 100 scale), Foxtail, Giant
  pest or weed control at 500 g/ha: 0%
[10]; Setaria faberi, pre-emergence, 240 h, Preemergence, read-out: Plant response rating (0 to 100 scale), Foxtail, Giant
  pest or weed control at 500 g/ha: 0%
[11]; Amaranthus retroflexus, post-emergence, 240 h, Postemergence, 125 g ai/ha, read-out: Plant response rating (0 to 100 scale), Pigweed
  pest or weed control at 125 g/ha: 80%
[11]; Amaranthus retroflexus, post-emergence, 240 h, Postemergence, read-out: Plant response rating (0 to 100 scale), Pigweed
  pest or weed control at 500 g/ha: 90%
[11]; Amaranthus retroflexus, pre-emergence, 240 h, Preemergence, read-out: Plant response rating (0 to 100 scale), Pigweed
  pest or weed control at 500 g/ha: 90%
[11]; Preemergence, 125 g ai/ha
  Pigweed plant response rating (0 = no effect, 100 = complete control): 0
[12]; Abutilon theophrasti, post-emergence, 240 h, Postemergence, 125 g ai/ha, read-out: Plant response rating (0 to 100 scale), Velvetleaf
  pest or weed control at 125 g/ha: 80%
[12]; Abutilon theophrasti, post-emergence, 240 h, Postemergence, read-out: Plant response rating (0 to 100 scale), Velvetleaf
  pest or weed control at 500 g/ha: 90%
[12]; Abutilon theophrasti, pre-emergence, 240 h, Preemergence, read-out: Plant response rating (0 to 100 scale), Velvetleaf
  pest or weed control at 500 g/ha: 40%
[12]; Preemergence, 125 g ai/ha
  Velvetleaf plant response rating (0 = no effect, 100 = complete control): 0
